Data as given in patent US20060127423A1, “Organic compounds” (priority 1998, published 2006).
In brackets after ≈: the same amount, converted by molar mass.

What was measured:
[1] = previously reported; cited from earlier work
[2] = Solubility of epothilone B in various solvent systems; format: physicochemical
Method: If not indicated otherwise all solubility data refer to T=22° C.

[3] = Stability of PEG-containing infusion concentrates: degradation products by HPLC; format: physicochemical
Method: The stability of aqueous versus nonaqueous polyethyleneglycol infusion concentrates comprising epothilone B at different concentration and various temperatures is determined. Typically, a known amount of epothilone B is dissolved in 1.0 ml of each of the various solvent systems and each solution is sterile filtered and charged to 1 ml white-glass vials with grey rubber stoppers and grey flip-off caps. The stability is analyzed by determining formation of degradation products in each of the infusion concentrates as a function of time and temperature. Each sample is analyzed by HPLC, the sample is prepared by diluting the concentrate with an aqueous medium.

[4] = as above; format: physicochemical; details: ethanol/water 59:41 (w/w), 5 mg/ml, 2-8° C.

Compound: C/C(=C\c1csc(C)n1)[C@@H]1C[C@@H]2O[C@@H]2CCC[C@H](C)[C@H](O)[C@@H](C)C(=O)C(C)(C)[C@@H](O)CC(=O)O1 [epothilone A]
- Aqueous solubility [1]: 940 µg/mL

Compound: C/C(=C\c1csc(C)n1)[C@@H]1C[C@@H]2O[C@]2(C)CCC[C@H](C)[C@H](O)[C@@H](C)C(=O)C(C)(C)[C@@H](O)CC(=O)O1 [epothilone B]
- Solubility ([2]; EtOH/H2O (v/v) 10/90, T=22° C.): 1100 µg/mL (≈ 2170 µM)
- Solubility ([2]; EtOH/H2O (v/v) 20/80, T=22° C.): 1300 µg/mL (≈ 2560 µM)
- Solubility ([2]; EtOH/H2O (v/v) 30/70, T=22° C.): 4100 µg/mL (≈ 8080 µM)
- Solubility ([2]; EtOH/H2O (v/v) 50/50, T=22° C.): 27000 µg/mL (≈ 53200 µM)
- Solubility ([2]; EtOH/H2O (v/v) 100/0, T=22° C.): >50000 µg/mL
- Solubility ([2]; H2O (pH 6.0), 4° C.): 190 µg/mL (≈ 374 µM)
- Solubility ([2]; H2O (pH 6.0), T=22° C.): 160 µg/mL (≈ 315 µM)
- Solubility ([2]; H2O, 0.9% glucose, T=22° C.): 160 µg/mL (≈ 315 µM)
- Solubility ([2]; H2O, 5% glucose, T=22° C.): 160 µg/mL (≈ 315 µM)
- Solubility ([2]; H2O, 5% poloxamer 188, T=22° C.): 230 µg/mL (≈ 453 µM)
- Solubility ([2]; H2O, 15% glycerin, T=22° C.): 190 µg/mL (≈ 374 µM)
- Solubility ([2]; PEG 300/H2O (v/v) 30/70, T=22° C.): 900 µg/mL (≈ 1770 µM)
- Solubility ([2]; PEG 300/H2O (v/v) 50/50, T=22° C.): 10000 µg/mL (≈ 19700 µM)
- Solubility ([2]; PEG 300/H2O (v/v) 70/30, T=22° C.): 2500 µg/mL (≈ 4920 µM)
- Solubility ([2]; PEG 300/H2O (v/v) 100/0, T=22° C.): 12000 µg/mL (≈ 23600 µM)
- Solubility ([2]; PEG 400/H2O (v/v) 30/70, T=22° C.): 800 µg/mL (≈ 1580 µM)
- Solubility ([2]; PEG 400/H2O (v/v) 50/50, T=22° C.): 11000 µg/mL (≈ 21700 µM)
- Solubility ([2]; PEG 400/H2O (v/v) 70/30, T=22° C.): 2300 µg/mL (≈ 4530 µM)
- Solubility ([2]; PEG 400/H2O (v/v) 100/0, T=22° C.): 30000 µg/mL (≈ 59100 µM)
- Solubility relative to water ([2]; PEG/water, propyleneglycol/water, or EtOH/water mixtures): significantly higher solubility
- Solubility ([2]; Phosphate buffer pH 7.4, 4° C.): 190 µg/mL (≈ 374 µM)
- Solubility ([2]; Phosphate buffer pH 7.4, T=22° C.): 160 µg/mL (≈ 315 µM)
- Solubility ([2]; Propylene glycol/H2O (v/v) 30/70, T=22° C.): 600 µg/mL (≈ 1180 µM)
- Solubility ([2]; Propylene glycol/H2O (v/v) 50/50, T=22° C.): 1600 µg/mL (≈ 3150 µM)
- Solubility ([2]; Propylene glycol/H2O (v/v) 70/30, T=22° C.): 10400 µg/mL (≈ 20500 µM)
- Solubility ([2]; Propylene glycol/H2O (v/v) 100/0, T=22° C.): 26000 µg/mL (≈ 51200 µM)
- Solubility in water ([2]; water at neutral pH): about 160 mg/l
- Proportion of degradation products ([3]; PEG 300, 1 mg/ml, 3 months, 2-8° C.): <0.1
- Proportion of degradation products ([3]; PEG 300/water 90:10 (w/w), 15 mg/ml, 7 months, 2-8° C.): <0.1
- Proportion of degradation products ([3]; PEG 300/water 90:10 (w/w), 15 mg/ml, 7 months, 25° C.): 1.0
- Proportion of degradation products ([3]; PEG 400, 1 mg/ml, 3 months, 2-8° C.): <0.1
- Proportion of degradation products ([3]; PEG 400, 1 mg/ml, 3 months, 25° C.): 0.2
- Proportion of degradation products ([3]; PEG 400/water 90:10 (w/w), 1 mg/ml, 3 months, 2-8° C.): <0.1
- Proportion of degradation products ([3]; PEG 400/water 90:10 (w/w), 1 mg/ml, 3 months, 25° C.): 0.4
- Proportion of degradation products ([4]; 1 month): 0.3
- Proportion of degradation products ([4]; 5 months): 0.3
- Proportion of degradation products ([4]; initial): <0.1
